US8901313B2, “6,5-heterocyclic propargylic alcohol compounds and uses therefor” (Genentech, Inc., priority 2011, dated 2014)

Assays:
[1] = test system: NF-kB signaling through NIK in human embryonic kidney 293 cells; assay: 293-NIK NF-kB-Luciferase reporter assay; format: cell-based; settings: HEK293, 293 cells with tetracycline-inducible NIK, 1 ug/mL doxycycline, 24 hours, read-out: inhibitory value (IC50) for 293-NIK NF-kB-Luciferase activity
From the text: (1) The first assay was used to profile whether a test compound can inhibit the NF-kB signally through NIK inhibition without affecting cell viability. In this assay, human embryonic kidney 293 cells was stably transfected with a tetracycline-inducible NIK DNA construct containing a cytomegalovirus promoter plus two reporter DNA constructs. One reporter encoded firefly luciferase under the control of three repeats of an NF-kB response element from the ELAM-1 gene and reflects the level of NIK activity in the cells, whereas the other reporter constitutively expressed Renilla luciferase under the control of the herpes simplex virus thymidine kinase promoter and served as a general measure of cell viability. Cells were incubated with different concentrations of compounds (0.2% DMSO final) in medium containing 1 ug/mL doxycycline and 10% tet-system approved fetal bovine serum (Clontech) for 24 hours, after which the reporters' signals were detected using the Dual Glo luciferase detection system (Promega) according to the vendor's protocol. The compounds listed in Table 1 have the corresponding inhibitory value (IC50 in micromolar) for 293-NIK NF-kB-Luciferase activity (values for compounds are presented in the same order as found in Table 1): na, 0.059, na, na, na, 0.105, 0.027, na, 20, 1.2, na, 1.8, 0.0231, 0.879, 0.0361, 0.582, na, 0.142, na, 0.403, 0.059, 0.0331, na, na, 0.0573, 1.5, na, na, 0.0722, na, na, 0.589, 12.7, 3.7, 14.9, na, 0.707, 1, 0.0311, 0.332, 0.309, 0.0142, 0.051, 2.8, 0.129, na, na, 1.5, na, na, na, 1.3, 0.062, 20, 0.31, 0.104, 0.091, 0.037, 0.085, 0.279, na, 0.305, 0.064, 0.332, 0.133, 0.168, 0.217, 0.553, na and na.

[2] = biological target: T1, nuclear factor-kappa B (NF-kB)-inducing kinase (NIK) (Homo sapiens, UniProt Q99558); assay: NIK Enzyme Inhibition Assay (Transcreener ADP assay); format: biochemical; settings: purified NIK 0.2-1 nM, 10 uM ATP, fluorescence polarization, Morrison's quadratic equation; read-out: inhibitory value (Ki) for NIK
T1 construct: made in house; host or cells: baculovirus-infected insect cells
T1 sequence (Q99558 whole entry): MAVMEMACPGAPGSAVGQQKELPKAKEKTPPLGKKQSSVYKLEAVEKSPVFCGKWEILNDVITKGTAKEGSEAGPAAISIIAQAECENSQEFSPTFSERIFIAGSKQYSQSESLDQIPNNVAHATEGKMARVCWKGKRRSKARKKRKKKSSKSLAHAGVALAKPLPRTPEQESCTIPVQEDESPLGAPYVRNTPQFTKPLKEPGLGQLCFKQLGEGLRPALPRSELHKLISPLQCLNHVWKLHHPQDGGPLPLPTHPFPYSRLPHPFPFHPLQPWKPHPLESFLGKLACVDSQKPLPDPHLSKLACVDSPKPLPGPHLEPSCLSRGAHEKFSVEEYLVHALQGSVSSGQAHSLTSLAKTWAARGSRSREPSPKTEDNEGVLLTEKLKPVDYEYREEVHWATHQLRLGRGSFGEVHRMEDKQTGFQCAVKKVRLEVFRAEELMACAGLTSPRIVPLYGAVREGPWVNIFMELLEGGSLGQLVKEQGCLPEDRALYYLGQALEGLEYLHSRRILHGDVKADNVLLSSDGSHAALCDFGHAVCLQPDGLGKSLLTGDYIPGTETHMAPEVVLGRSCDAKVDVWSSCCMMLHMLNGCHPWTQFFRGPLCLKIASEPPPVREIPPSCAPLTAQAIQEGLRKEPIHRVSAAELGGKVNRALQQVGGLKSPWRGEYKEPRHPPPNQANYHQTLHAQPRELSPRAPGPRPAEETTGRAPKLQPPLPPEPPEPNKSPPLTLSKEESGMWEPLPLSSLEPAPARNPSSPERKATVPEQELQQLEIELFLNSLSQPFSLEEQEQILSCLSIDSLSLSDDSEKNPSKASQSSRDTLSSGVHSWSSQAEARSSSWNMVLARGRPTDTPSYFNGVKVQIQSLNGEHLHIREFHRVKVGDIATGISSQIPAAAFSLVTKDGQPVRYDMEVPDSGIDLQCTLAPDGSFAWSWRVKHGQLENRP

[3] = test system: p52 (NF-kB2) nuclear translocation in HeLa cells; assay: NIK p52 Translocation Assay (non-classical NF-kB signaling); format: cell-based; settings: Homo sapiens; HeLa cells, 100 ng/mL anti-lymphotoxin beta receptor antibody, 5 hours; read-out: inhibitory value (IC50) for NIK p52 Translocation Assay
Protocol: (2) A second set of cell assay was used to define the selectivity of NIK inhibitors toward inhibition of classical vs. non-classical NF-kB signaling and rely on quantification of the nuclear translocation of p52 (NF-kB2) and REL-A (p65) using high content cellular imaging. For the p52 (non-classical NF-kB signaling) nuclear translocation assay, HeLa cells were treated with different concentrations of compounds (0.2% DMSO final) in medium containing 10% fetal bovine serum and then stimulated with 100 ng/mL of an anti-lymphotoxin beta receptor antibody (R&D Systems) for 5 hours. In the REL-A nuclear translocation assay, HeLa cells were incubated with compounds (0.2% DMSO final) for 4.5 hours in medium containing 10% fetal bovine serum before stimulating them with 10 ng/mL tumor necrosis factor (TNF)-α (R&D Systems) for 30 minutes. Cells were fixed with 4% paraformaldehyde, permeabilized by adding 0.1% Triton X-100 in phosphate buffered saline, and then incubated with either 2 ug/mL anti-p52 antibody (Millipore) or 400 ng/mL anti-REL-A (p65) antibody (Santa Cruz Biotechnology). Finally, the cells were incubated with an Alexa488-labeled secondary antibody (Invitrogen) and DRAQ5 DNA stain (Biostatus). Imaging was carried out using an Opera reader (Perkin Elmer) and data are analyzed with the aid of Acapella software (Perkin Elmer). The p52 or REL-A translocation into the nucleus was quantified by the ratio of the nuclear to cytoplasmic signal intensity. The concentration of inhibitor required for 50% inhibition (IC50 values) in these cell assays were derived from the plots of signal vs. inhibitor concentration. The compounds in listed in Table 1 have the corresponding inhibitory value (IC50 in micromolar) for NIK p52 Translocation Assay (values for compounds are presented in the same order as found in Table 1, and “na” means the data for this assay is to be determined): 0.326, 0.33, na, na, na, 0.218, 0.07, na, na, na, 0.129, 7.6, 0.077, 3.4, na, 0.518, na, 0.059, 0.514, 0.127, na, na, 0.010, na, na, 0.313, 0.275, na, 0.0727, na, na, na, na, na, na, 0.194, na, 6.4, 0.22, 0.346, na, na, na and na, na, na, na, na, na, 0.447, na, 0.089, 0.479, 0.489, 0.243, 0.747, 1, na, 1.9, 0.552, 2.1, na. na, na, na, na and na.

Compound | Ki [2] [nM] | IC50 [1] [nM] | IC50 [3] [nM]
N#Cc1ccc2cnn(-c3nc(N)ncc3N)c2c1 [Example T1-9, 1-(2,5-diaminopyrimidin-4-yl)-1H-indazole-6-carbonitrile] | 45.9 | 20000 | 
CC1(C(=O)Nc2cnc(N)nc2-n2ncc3ccc(C#N)cc32)COC1 [Example T1-11, N-(2-amino-4-(6-cyano-1H-indazol-1-yl)pyrimidin-5-yl)-3-methyloxetane-3-carboxamide] | 559 |  | 129
Cc1nc2ccc(C#CC(C)(O)c3nccs3)cc2n1-c1ccnc(N)n1 (stereo not shown) [Example T1-12, 4-(1-(2-aminopyrimidin-4-yl)-2-methyl-1H-benzo[d]imidazol-6-yl)-2-(thiazol-2-yl)but-3-yn-2-ol] | 9.3 | 1800 | 7600
CC(O)(C#Cc1ccc2cnn(-c3ccnc(N)n3)c2c1)C(F)F (stereo not shown) [Example T1-19, 4-(1-(2-aminopyrimidin-4-yl)-1H-indazol-6-yl)-1,1-difluoro-2-methylbut-3-yn-2-ol] | 190 |  | 514
COc1ncccc1Nc1ncnc(-n2ncc3ccc(C#N)cc32)n1 [Example T1-23, 1-(4-(2-methoxypyridin-3-ylamino)-1,3,5-triazin-2-yl)-1H-indazole-6-carbonitrile] | > 5000 |  | 10
CC(O)(C#Cc1ccc2ncn(-c3ccnc(N)n3)c2c1)C(F)(F)F (stereo not shown) [Example T1-27, 4-(1-(2-aminopyrimidin-4-yl)-1H-benzo[d]imidazol-6-yl)-1,1,1-trifluoro-2-methylbut-3-yn-2-ol] | 570 |  | 275
CC(O)(C#Cc1ccc2ncn(-c3ccnc(N)n3)c2c1)c1cn[nH]c1 (stereo not shown) [Example T1-33, 4-(1-(2-aminopyrimidin-4-yl)-1H-benzo[d]imidazol-6-yl)-2-(1H-pyrazol-4-yl)but-3-yn-2-ol] | 23 | 12700 | 
CC(O)(C#Cc1ccc2ncn(-c3ccnc(N)n3)c2c1)C1CC1 (stereo not shown) [Example T1-34, 4-(1-(2-aminopyrimidin-4-yl)-1H-benzo[d]imidazol-6-yl)-2-cyclopropylbut-3-yn-2-ol] | 92.1 | 3700 | 
CC(O)(C#Cc1ccc2cnn(-c3ccnc(N)n3)c2c1)c1cn[nH]c1 (stereo not shown) [Example T1-35, 4-(1-(2-aminopyrimidin-4-yl)-1H-indazol-6-yl)-2-(1H-pyrazol-4-yl)but-3-yn-2-ol] | 18 | 14900 | 
CC(C)(O)C#Cc1ccc2cnn(-c3cc(N)ncn3)c2c1 [Example T1-36, 4-(1-(6-aminopyrimidin-4-yl)-1H-indazol-6-yl)-2-methylbut-3-yn-2-ol] | 850 |  | 194
CC(O)(C#Cc1ccc2ncn(-c3nccc(N)n3)c2c1)c1nccs1 (stereo not shown) [Example T1-50, 4-(1-(4-aminopyrimidin-2-yl)-1H-benzo[d]imidazol-6-yl)-2-(thiazol-2-yl)but-3-yn-2-ol] | 152 |  | 447
Cc1nonc1C(C)(O)C#Cc1ccc2c(C)nn(-c3ccnc(N)n3)c2c1 (stereo not shown) [Example T1-61, 4-(1-(2-aminopyrimidin-4-yl)-3-methyl-1H-indazol-6-yl)-2-(4-methyl-1,2,5-oxadiazol-3-yl)but-3-yn-2-ol] | 383 |  | 2100
CN(C(=O)c1nn(-c2ccnc(N)n2)c2cc(C#CC(C)(O)c3ncccn3)ccc12)c1ccccn1 (stereo not shown) [Example T1.1-142, 1-(2-aminopyrimidin-4-yl)-6-(3-hydroxy-3-pyrimidin-2-yl-but-1-ynyl)-N-methyl-N-(2-pyridyl)indazole-3-carboxamide] | 7 |  | 
CC(O)(C#Cc1ccc2c(C(=O)N3CCCC(O)C3)nn(-c3ccnc(N)n3)c2c1)c1ncccn1 (stereo not shown) [Example T1.1-145, [1-(2-aminopyrimidin-4-yl)-6-(3-hydroxy-3-pyrimidin-2-yl-but-1-ynyl)indazol-3-yl]-(3-hydroxy-1-piperidyl)methanone] | 11 |  | 
CC(O)(C#Cc1ccc2c(C(=O)N3CC(O)C3)nn(-c3ccnc(N)n3)c2c1)c1ncccn1 (stereo not shown) [Example T1.1-146, [1-(2-aminopyrimidin-4-yl)-6-(3-hydroxy-3-pyrimidin-2-yl-but-1-ynyl)indazol-3-yl]-(3-hydroxyazetidin-1-yl)methanone] | 3400 |  | 

Now those with a lower Ki [2], led by results:

Ki [2] [nM] | Compound | IC50 [1] [nM] | IC50 [3] [nM]
5.28 | CC(O)(C#Cc1ccc2c(C(=O)N3CC4CC4C3)nn(-c3ccnc(N)n3)c2c1)c1ncccn1 (stereo not shown) [Example T1.1-140, [1-(2-aminopyrimidin-4-yl)-6-(3-hydroxy-3-pyrimidin-2-yl-but-1-ynyl)indazol-3-yl]-(3-azabicyclo[3.1.0]hexan-3-yl)methanone] |  | 
4 | CC(O)(C#Cc1ccc2c(C(=O)N3CC(C#N)C3)nn(-c3ccnc(N)n3)c2c1)c1ncccn1 (stereo not shown) [Example T1.1-147, 1-[1-(2-aminopyrimidin-4-yl)-6-(3-hydroxy-3-pyrimidin-2-yl-but-1-ynyl)indazole-3-carbonyl]azetidine-3-carbonitrile] |  | 
3 | CC(O)(C#Cc1ccc2c(C(=O)N3CCOCC3)nn(-c3ccnc(N)n3)c2c1)c1ncco1 (stereo not shown) [Example T1.1-144, [1-(2-aminopyrimidin-4-yl)-6-(3-hydroxy-3-oxazol-2-yl-but-1-ynyl)indazol-3-yl]-morpholino-methanone] |  | 
2.3 | CC(O)(C#Cc1ccc2ncn(-c3ccnc(N)n3)c2c1)CF (stereo not shown) [Example T1-37, 4-(1-(2-aminopyrimidin-4-yl)-1H-benzo[d]imidazol-6-yl)-1-fluoro-2-methylbut-3-yn-2-ol] | 707 | 
2 | CC(O)(C#Cc1ccc2c(C(=O)Nc3cccnc3)nn(-c3ccnc(N)n3)c2c1)c1ncccn1 (stereo not shown) [Example T1.1-143, 1-(2-aminopyrimidin-4-yl)-6-(3-hydroxy-3-pyrimidin-2-yl-but-1-ynyl)-N-(3-pyridyl) indazole-3-carboxamide] |  | 
2 | CC(O)(C#Cc1ccc2c(C(=O)NCC#N)nn(-c3ccnc(N)n3)c2c1)c1ncccn1 (stereo not shown) [Example T1.134, 1-(2-aminopyrimidin-4-yl)-N-(cyanomethyl)-6-(3-hydroxy-3-pyrimidin-2-yl-but-1-ynyl) indazole-3-carboxamide] |  | 
0.3 | CC(O)(C#Cc1ccc2c(C(=O)N3CCOCC3)nn(-c3ccnc(N)n3)c2c1)c1ncccn1 (stereo not shown) [Example T1.1-149, [1-(2-aminopyrimidin-4-yl)-6-(3-hydroxy-3-pyrimidin-2-yl-but-1-ynyl)indazol-3-yl]-morpholino-methanone] |  | 
0.1 | CC(O)(C#Cc1ccc2c(C(=O)NC3COC3)nn(-c3ccnc(N)n3)c2c1)c1ncccn1 (stereo not shown) [Example T1.1-148, 1-(2-aminopyrimidin-4-yl)-6-(3-hydroxy-3-pyrimidin-2-yl-but-1-ynyl)-N-(oxetan-3-yl)indazole-3-carboxamide] |  | 
